Data on eleven molecules can be found in patent US10758534B2 (Vertex Pharmaceuticals Incorporated, priority 2014, dated 2020).

The target of this experiment is T1, F508del (Homo sapiens, UniProt P13569, DEL508-508).
T1 construct: expressed in transfected cells
Put plainly: Protocol 1: membrane potential optical assay (FLIPR III, voltage sensing dye), identification of potentiator compounds. Type of experiment: cell-based. Conditions: Table 3, compounds of Table 1. An outline of the steps: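 Mouse NIH 3T3 fibroblasts stably expressing F508del, temperature-corrected at 27 °C for 24 h, pretreated with compound, then loaded with voltage-sensing redistribution dye. Forskolin was added in a single step with a chloride gradient (chloride-free gluconate bath; Bath Solution #1 HEPES pH 7.4). Membrane-potential fluorescence read on FLIPR III.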

T1 sequence (P13569 with tags, fused parts or gaps DEL508-508): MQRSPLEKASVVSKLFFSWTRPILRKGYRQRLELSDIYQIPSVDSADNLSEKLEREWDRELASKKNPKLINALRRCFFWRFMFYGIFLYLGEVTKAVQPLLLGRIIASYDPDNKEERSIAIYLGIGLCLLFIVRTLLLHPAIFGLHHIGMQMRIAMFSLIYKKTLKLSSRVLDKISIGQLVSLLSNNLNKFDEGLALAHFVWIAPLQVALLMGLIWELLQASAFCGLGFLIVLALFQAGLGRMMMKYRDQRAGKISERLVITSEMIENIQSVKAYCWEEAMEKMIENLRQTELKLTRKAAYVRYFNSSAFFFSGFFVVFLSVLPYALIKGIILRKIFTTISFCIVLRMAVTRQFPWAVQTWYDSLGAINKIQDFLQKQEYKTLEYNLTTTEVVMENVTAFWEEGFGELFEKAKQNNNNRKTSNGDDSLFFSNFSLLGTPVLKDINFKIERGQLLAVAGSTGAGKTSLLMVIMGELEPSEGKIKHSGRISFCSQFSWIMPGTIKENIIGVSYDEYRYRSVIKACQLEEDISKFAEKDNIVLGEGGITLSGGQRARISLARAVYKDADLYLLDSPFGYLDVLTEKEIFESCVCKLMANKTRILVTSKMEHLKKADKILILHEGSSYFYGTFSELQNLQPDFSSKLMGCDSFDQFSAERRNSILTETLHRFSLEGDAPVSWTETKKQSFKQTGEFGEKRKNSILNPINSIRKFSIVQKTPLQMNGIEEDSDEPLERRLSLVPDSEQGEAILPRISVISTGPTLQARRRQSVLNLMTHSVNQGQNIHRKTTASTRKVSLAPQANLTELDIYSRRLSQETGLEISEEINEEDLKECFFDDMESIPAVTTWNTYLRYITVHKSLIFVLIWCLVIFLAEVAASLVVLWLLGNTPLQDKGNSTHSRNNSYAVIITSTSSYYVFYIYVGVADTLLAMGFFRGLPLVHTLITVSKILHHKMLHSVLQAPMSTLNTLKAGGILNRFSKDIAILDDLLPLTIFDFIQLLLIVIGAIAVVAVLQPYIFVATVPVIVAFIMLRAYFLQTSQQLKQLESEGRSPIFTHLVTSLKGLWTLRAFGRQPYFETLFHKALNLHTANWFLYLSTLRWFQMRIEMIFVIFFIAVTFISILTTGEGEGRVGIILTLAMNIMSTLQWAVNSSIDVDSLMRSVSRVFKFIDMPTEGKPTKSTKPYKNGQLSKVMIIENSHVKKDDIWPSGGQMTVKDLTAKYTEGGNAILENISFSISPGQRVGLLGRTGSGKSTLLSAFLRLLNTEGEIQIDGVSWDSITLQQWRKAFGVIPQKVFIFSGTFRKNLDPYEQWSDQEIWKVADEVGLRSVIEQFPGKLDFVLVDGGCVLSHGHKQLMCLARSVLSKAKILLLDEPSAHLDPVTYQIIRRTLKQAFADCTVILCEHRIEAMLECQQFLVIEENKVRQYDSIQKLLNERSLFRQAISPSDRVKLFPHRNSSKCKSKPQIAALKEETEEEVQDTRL

For the molecule `CC(C)COc1cc(F)cc(-c2ccc(C(=O)NS(=O)(=O)c3cccc(N)n3)c(N3CC(C)CCC3C)n2)c1` (single isomer, unassigned) [Compound 1864, N-[(6-amino-2-pyridyl)sulfonyl]-2-(2,5-dimethyl-1-piperidyl)-6-(3-fluoro-5-isobutoxy-phenyl)pyridine-3-carboxamide], the EC30 entry is on record as “+++ (“+++” means <3 uM)”. In the case of `CC1CN(c2ncccc2C(=O)NS(=O)(=O)c2cccc(N3CCCC4CCCCC43)n2)C(C)(C)C1` (centres unmarked) [Compound 1776, N—[[6-(3,4,4a,5,6,7,8,8a-octahydro-2H-quinolin-1-yl)-2-pyridyl]sulfonyl]-2-(2,2,4-trimethylpyrrolidin-1-yl)pyridine-3-carboxamide] it was “+++ (“+++” means <3 uM)”; in that of `Cc1cc(C)c(Oc2nc(C3=CCCC4(C3)OCCO4)ccc2C(=O)NS(=O)(=O)c2cccc(N)n2)c(C)c1` [Compound 1437, N-[(6-amino-2-pyridyl)sulfonyl]-6-(1,4-dioxaspiro[4.5]dec-8-en-9-yl)-2-(2,4,6-trimethylphenoxy)pyridine-3-carboxamide], “++ (“++” means between 3 uM and 10 uM)”; in that of `CC(C)COc1cc(F)cc(-c2ccc(C(=O)NS(=O)(=O)c3cccc(N)n3)c(N3CCCC4(CCC4)C3)n2)c1` [Compound 1264, N-[(6-amino-2-pyridyl)sulfonyl]-2-(8-azaspiro[3.5]nonan-8-yl)-6-(3-fluoro-5-isobutoxy-phenyl)pyridine-3-carboxamide], “+++ (“+++” means <3 uM)”. For the molecule `CC(C)COc1cc(F)cc(-c2ccc(C(=O)NS(=O)(=O)c3cccc(N)n3)c(N3CCCCC(C)(C)C3)n2)c1` [Compound 1901, N-[(6-amino-2-pyridyl)sulfonyl]-2-(3,3-dimethylazepan-1-yl)-6-(3-fluoro-5-isobutoxy-phenyl)pyridine-3-carboxamide], the EC30 entry is listed as “+++ (“+++” means <3 uM)”. Then `CCOc1cccc2c1CN(Cc1c(C)cc(C)cc1C)C2(C)C(=O)NS(=O)(=O)c1cnc(NC(C)=O)s1` (centres unmarked) [Compound 1555, N-(2-acetamidothiazol-5-yl)sulfonyl-4-ethoxy-1-methyl-2-[(2,4,6-trimethylphenyl)methyl]isoindoline-1-carboxamide], with “+++ (“+++” means <3 uM)”. Then `CCc1ccc(-c2ccc(C(=O)NS(=O)(=O)c3ccc[nH]c3=O)c(Oc3c(C)cc(C)cc3C)n2)cc1` [Compound 831, 6-(4-ethylphenyl)-N-[(2-oxo-1H-pyridin-3-yl)sulfonyl]-2-(2,4,6-trimethylphenoxy)pyridine-3-carboxamide], with “+++ (“+++” means <3 uM)”. For the molecule `Cc1cc(C)c(Oc2nc(-c3cc(F)ccc3F)ccc2C(=O)NS(=O)(=O)c2cccc(N)n2)c(C)c1` [Compound 803, N-[(6-amino-2-pyridyl)sulfonyl]-6-(2,5-difluorophenyl)-2-(2,4,6-trimethylphenoxy)pyridine-3-carboxamide], the EC30 result is recorded as “+++ (“+++” means <3 uM)”. In the case of `Cc1cc(C)c(Oc2nc(-c3ccccc3)ccc2C(=O)NS(=O)(=O)c2cccc(NCCN)n2)c(C)c1` [Compound 1027, N-[[6-(2-aminoethylamino)-2-pyridyl]sulfonyl]-6-phenyl-2-(2,4,6-trimethylphenoxy)pyridine-3-carboxamide] it was “++ (“++” means between 3 uM and 10 uM)”. Then `Cc1cc(C)c(Oc2nc(C3=CCOCC3)ccc2C(=O)NS(=O)(=O)c2cccc(N)n2)c(C)c1` [Compound 976, N-[(6-amino-2-pyridyl)sulfonyl]-6-(3,6-dihydro-2H-pyran-4-yl)-2-(2,4,6-trimethylphenoxy)pyridine-3-carboxamide], with “++ (“++” means between 3 uM and 10 uM)”.

Take `Cc1cc(C)c(Oc2nc(N3CCCC3C)c(C)cc2C(=O)NS(=O)(=O)c2cccc(N)n2)c(C)c1` (centres unmarked) [Compound 1516, N-[(6-amino-2-pyridyl)sulfonyl]-5-methyl-6-(2-methylpyrrolidin-1-yl)-2-(2,4,6-trimethylphenoxy)pyridine-3-carboxamide]: the EC30 entry is “+++ (“+++” means <3 uM)”.
